Experimental data taken from patent publication US12129237B2, “Substituted diaminocarboxamide and diaminocarbonitrile pyrimidines, compositions thereof, and methods of treatment therewith” (SIGNAL PHARMACEUTICALS, LLC, priority 2011, dated 2024).

Biological target: T1, JNK1 (Homo sapiens, UniProt P45983)
T1 construct: purchased Carna Biosciences
Assay: JNK1 biochemical assays (one or more of: time resolved fluorescence, Z'-LYTE Cascade, radioactive)
Details: Table 2; JNK1 IC50 activity level; read-out: Act. Level
Description: JNK1 Assay. A 384-well time resolved fluorescence assay was used to monitor JNK1 activity. The JNK1 assay was run in the following assay buffer: 50 mM HEPES, 10 mM MgCl2, 1 mM EGTA, 2 mM DTT, and 0.01% Tween 20. To initiate the reaction 100 nM of ULight™-labeled 4EBP1 peptide (Perkin-Elmer) and 5 μM of ATP were mixed with 500 pM of JNK1 (Carna Biosciences), for a total assay volume of 20 μL in each well. The assay was incubated at room temperature for 1 h and terminated using a mixture of 30 mM EDTA and 4 nM Eu-anti-4EBP1, by adding 20 μL of stop solution to each well. Plates were read on a Perkin-Elmer Envision Reader.
JNK1 Assay. The JNK1 Z′-LYTE® Cascade kinase assay was run in the following buffer: 50 mM HEPES at pH 7.5, 0.01% BRIJ-35, 10 mM MgCl2, 1 mM EGTA, and 1 mM DTT. […] The assay was incubated at room temperature for 1 h. […] The data was then read on a fluorescence plate reader and analyzed.
JNK1 assay. The radioactive JNK kinase assay was carried out in a 96-well plate format at a final volume of 100 μL. […] JNK1 was diluted in the following dilution buffer (20 mM HEPES pH 7.6, 0.1 mM EDTA, 2.5 mM MgCl2, 0.004% (w/v) Triton X100, 2 μg/ml Leupeptin, 20 mM B-glycerol phosphate, 0.1 mM Na3VO4 dithiothreitol) and then pre-mixed with cJun diluted in the substrate solution buffer (20 mM HEPES pH 7.6, 50 mM NaCl, 0.1 mM EDTA, 2.5 mM MgCl2, 0.05% (w/v) Triton X100). […] The enzyme, substrate and inhibitor mixture was allowed to equilibrate at room temperature for 15 minutes. The reaction was started by the addition of 10 μL of 10×ATP in kinase buffer (130 mM MgCl2, 6 mM dithiothreitol, 150 mM para-nitrophenyl phosphate, 100 μCi/ml γ-[^33P]-ATP). Reactions were allowed to proceed for 60 minutes before precipitation of protein via trichloroacetic acid (7.2% TCA final). […] The precipitate was washed with Phosphate Buffered Saline and the amount of phosphate incorporated into cJun was quantified by scintillation counting using a Packard Topcount-NXT. All assays were conducted under conditions where phosphate incorporation was linear with respect to time and enzyme concentration.

T1 sequence (P45983 whole entry): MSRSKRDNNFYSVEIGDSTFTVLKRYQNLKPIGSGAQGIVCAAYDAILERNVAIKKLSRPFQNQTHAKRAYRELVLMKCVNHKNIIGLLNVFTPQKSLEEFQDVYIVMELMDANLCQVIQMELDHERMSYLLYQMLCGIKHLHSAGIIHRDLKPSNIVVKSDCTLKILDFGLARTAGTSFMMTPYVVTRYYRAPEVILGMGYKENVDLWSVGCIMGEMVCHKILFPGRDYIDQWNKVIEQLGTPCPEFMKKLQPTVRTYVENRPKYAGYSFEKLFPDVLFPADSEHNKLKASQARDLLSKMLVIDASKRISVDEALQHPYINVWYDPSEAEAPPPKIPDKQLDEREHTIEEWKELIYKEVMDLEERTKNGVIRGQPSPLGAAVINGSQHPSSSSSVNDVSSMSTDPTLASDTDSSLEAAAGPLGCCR

IC50 | SMILES
< 0.2 µM | CS(=O)(=O)N[C@H]1CC[C@H](Nc2ncc(C(N)=O)c(Nc3ccccc3)n2)CC1 [Example B-5, 2-((1r,4r)-4-(methylsulfonamido)cyclohexylamino)-4-(phenylamino)pyrimidine-5-carboxamide]
< 0.2 µM | CC(C)Nc1nc(N[C@H]2CCc3ncccc3C2)ncc1C(N)=O [Example B-80, (S)-4-(isopropylamino)-2-(5,6,7,8-tetrahydroquinolin-6-ylamino)pyrimidine-5-carboxamide]
< 0.2 µM | NC(=O)c1cnc(N[C@@H]2CCc3cnccc3C2)nc1N[C@@H]1CCC[C@H](O)C1 [Example B-96, 4-((1R,3S)-3-hydroxycyclohexylamino)-2-((R)-5,6,7,8-tetrahydroisoquinolin-6-ylamino)pyrimidine-5-carboxamide]
< 0.2 µM | NC(=O)c1cnc(Nc2ccc(N3CCOCC3)cc2)nc1Nc1ccccc1 [Example B-40, 2-(4-morpholinophenylamino)-4-(phenylamino)pyrimidine-5-carboxamide]
0.2 to 0.8 µM | Cc1cc(Nc2ncc(C(N)=O)c(Nc3ccccc3)n2)n[nH]1 [Example B-33, 2-(5-methyl-1H-pyrazol-3-ylamino)-4-(phenylamino)pyrimidine-5-carboxamide]

Same assay, conditions: Table 3; JNK1 IC50 activity level; read-out: Act. Level

IC50 | SMILES
< 0.2 µM | N#Cc1cnc(N[C@H]2CC[C@H](OC(F)F)CC2)nc1N[C@@H]1CCC[C@H](O)C1 [Example C-6, 2-((1r,4R)-4-(difluoromethoxy)cyclohexylamino)-4-((1R,3S)-3-hydroxycyclohexylamino) pyrimidine-5-carbonitrile]
0.2 to 0.8 µM | CCO[C@H]1CC[C@H](Nc2ncc(C#N)c(N[C@H]3CC[C@@H](O)CC3)n2)CC1 [Example C-22, 2-((1r,4r)-4-ethoxycyclohexylamino)-4-((1s,4s)-4-hydroxycyclohexylamino) pyrimidine-5-carbonitrile]
< 0.2 µM | N#Cc1cnc(N[C@H]2CC[C@H](O)CC2)nc1N[C@@H]1CCCC[C@H](O)C1 [Example C-36]

Same assay, conditions: one or more of the JNK1 biochemical assays; read-out: Act. Level (JNK1 IC50 activity level)

IC50 | SMILES
< 0.2 µM | CN(C)C(=O)[C@H]1CC[C@H](Nc2ncc(C(N)=O)c(NC34CC(C3)C4)n2)CC1 [Example 418, 4-(bicyclo[1.1.1]pentan-1-ylamino)-2-((1r,4r)-4-(dimethylcarbamoyl)cyclohexylamino)pyrimidine-5-carboxamide]
< 0.2 µM | CC(C)(C)Nc1nc(NC2CCCC(O)CC2)ncc1C(N)=O (centres unmarked) [Example 251, 4-(tert-butylamino)-2-(4-hydroxycycloheptylamino)pyrimidine-5-carboxamide]
< 0.2 µM | CC(C)Nc1nc(N[C@@H]2CCC[C@H](O)CC2)ncc1C(N)=O [Example 234, 2-((1R,4S)-4-hydroxycycloheptylamino)-4-(isopropylamino)pyrimidine-5-carboxamide]
< 0.2 µM | CC(C)(Nc1nc(N[C@H]2CCC[C@H](O)C2)ncc1C(N)=O)C1CC1 [Example 456, 4-(2-cyclopropylpropan-2-ylamino)-2-((1S,3S)-3-hydroxycyclohexylamino)pyrimidine-5-carboxamide]
< 0.2 µM | CO[C@H]1CC[C@H](Nc2ncc(C(N)=O)c(NC(C)(C)C3CC3)n2)CC1 [Example 315, 4-(2-cyclopropylpropan-2-ylamino)-2-((1r,4r)-4-methoxycyclohexylamino)pyrimidine-5-carboxamide]
< 0.2 µM | CC(C)(Nc1nc(N[C@H]2CC[C@H](OC(F)F)CC2)ncc1C(N)=O)C1CC1 [Example 481, 4-(2-cyclopropylpropan-2-ylamino)-2-((1r,4r)-4-(difluoromethoxy)cyclohexylamino)pyrimidine-5-carboxamide]
< 0.2 µM | NC(=O)c1cnc(NC2CC2)nc1N[C@@H]1CCCC[C@H](O)C1 [Example 377, 2-(cyclopropylamino)-4-((1R,3S)-3-hydroxycycloheptylamino)pyrimidine-5-carboxamide]
< 0.2 µM | C[C@@H]1CC[C@@H](Nc2nc(NC34CC(C)(C3)C4)ncc2C(N)=O)C[C@H]1O [Example 396, 4-((1R,3R,4R)-3-hydroxy-4-methylcyclohexylamino)-2-(3-methylbicyclo[1.1.1]pentan-1-ylamino)pyrimidine-5-carboxamide]
< 0.2 µM | CC(C)(Nc1nc(N[C@@H]2CCC[C@H](O)C2)ncc1C(N)=O)C1CC1 [Example 466, 4-(2-cyclopropylpropan-2-ylamino)-2-((1R,3S)-3-hydroxycyclohexylamino)pyrimidine-5-carboxamide]
< 0.2 µM | CC(C)Nc1nc(NC23CCC(O)(CC2)CC3)ncc1C(N)=O [Example 202, 2-(4-hydroxybicyclo[2.2.2]octan-1-ylamino)-4-(isopropylamino)pyrimidine-5-carboxamide]
< 0.2 µM | C[C@]1(O)CCC[C@@H](Nc2nc(NC3CC3)ncc2C(N)=O)C1 [Example 378, 2-(cyclopropylamino)-4-((1R,3S)-3-hydroxy-3-methylcyclohexylamino)pyrimidine-5-carboxamide]
< 0.2 µM | CCO[C@H]1CC[C@H](Nc2ncc(C(N)=O)c(N[C@H]3C[C@H](C)C3)n2)CC1 [Example 313, 2-((1r,4r)-4-ethoxycyclohexylamino)-4-((1r,3r)-3-methylcyclobutylamino)pyrimidine-5-carboxamide]
< 0.2 µM | NC(=O)c1cnc(NC2CCC2)nc1N[C@@H]1CCCC[C@H](O)C1 [Example 339, 2-(cyclobutylamino)-4-((1R,3S)-3-hydroxycycloheptylamino)pyrimidine-5-carboxamide]
< 0.2 µM | CCO[C@H]1CC[C@H](Nc2ncc(C(N)=O)c(N[C@@H](C)C(C)(C)C)n2)CC1 [Example 276, 4-((S)-3,3-dimethylbutan-2-ylamino)-2-((1r,4S)-4-ethoxycyclohexylamino)pyrimidine-5-carboxamide]
< 0.2 µM | CCO[C@H]1CC[C@H](Nc2ncc(C(N)=O)c(N[C@H](CC)C3CC3)n2)CC1 [Example 375, 4-((R)-1-cyclopropylpropylamino)-2-((1r,4R)-4-ethoxycyclohexylamino)pyrimidine-5-carboxamide]
< 0.2 µM | C[C@@H]1CC[C@@H](Nc2nc(NC3CCOCC3)ncc2C(N)=O)C[C@H]1O [Example 208, 4-((1R,3R,4R)-3-hydroxy-4-methylcyclohexylamino)-2-(tetrahydro-2H-pyran-4-ylamino)pyrimidine-5-carboxamide]
< 0.2 µM | CC(C)(C)Nc1nc(NC23CCC(O)(CC2)CC3)ncc1C(N)=O [Example 237, 4-(tert-butylamino)-2-(4-hydroxybicyclo[2.2.2]octan-1-ylamino)pyrimidine-5-carboxamide]
< 0.2 µM | NC(=O)c1cnc(NC2CCOCC2)nc1NC1CCC1 [Example 435, 4-(cyclobutylamino)-2-(tetrahydro-2H-pyran-4-ylamino)pyrimidine-5-carboxamide]
< 0.2 µM | CCC1(Nc2nc(N[C@H]3CC[C@H](OC)CC3)ncc2C(N)=O)CCC1 [Example 361, 4-(1-ethylcyclobutylamino)-2-((1r,4r)-4-methoxycyclohexylamino)pyrimidine-5-carboxamide]

Same assay, conditions: tested in one or more of the JNK1 biochemical assays; read-out: Act. Level (JNK1 biochemical assay IC50 activity level)

IC50 | SMILES
0.2 to 0.8 µM | CO[C@H]1CC[C@H](Nc2ncc(C(N)=O)c(N[C@H]3CCC[C@H]3CO)n2)CC1 [Example A-37, 4-((1S,2R)-2-(hydroxymethyl)cyclopentylamino)-2-((1r,4S)-4-methoxycyclohexylamino)pyrimidine-5-carboxamide]
< 0.2 µM | C[C@]1(O)CCC[C@@H](Nc2nc(N[C@H]3CC[C@H](OCC(F)(F)F)CC3)ncc2C(N)=O)C1 [Example A-168, 4-((1R,3S)-3-hydroxy-3-methylcyclohexylamino)-2-((1r,4R)-4-(2,2,2-trifluoroethoxy)cyclohexylamino)pyrimidine-5-carboxamid]
< 0.2 µM | CO[C@H]1CC[C@H](Nc2ncc(C(N)=O)c(NC3CCC3)n2)CC1 [Example A-164, 4-(cyclobutylamino)-2-((1r,4r)-4-methoxycyclohexylamino)pyrimidine-5-carboxamide]
< 0.2 µM | CN[C@H]1CC[C@H](Nc2ncc(C(N)=O)c(N[C@@H]3CCC[C@H](O)C3)n2)CC1 [Example A-49, 4-((1R,3S)-3-hydroxycyclohexylamino)-2-((1r,4R)-4-(methylamino)cyclohexylamino)pyrimidine-5-carboxamide]
< 0.2 µM | CO[C@H]1CC[C@@H](Nc2nc(N[C@@H]3CC[C@@H](CO)C3)ncc2C(N)=O)CC1 [Example A-97, 2-((1R,3R)-3-(hydroxymethyl)cyclopentylamino)-4-((1s,4S)-4-methoxycyclohexylamino)pyrimidine-5-carboxamide]
< 0.2 µM | CC1(Nc2nc(N[C@H]3CC[C@H](O)CC3)ncc2C(N)=O)CCOCC1 [Example A-79, 2-((1r,4r)-4-hydroxycyclohexylamino)-4-(4-methyltetrahydro-2H-pyran-4-ylamino)pyrimidine-5-carboxamide]
< 0.2 µM | C[C@]1(O)CCC[C@@H](Nc2nc(NC3CCC(F)(F)CC3)ncc2C(N)=O)C1 [Example A-187, 2-(4,4-difluorocyclohexylamino)-4-((1R,3S)-3-hydroxy-3-methylcyclohexylamino)pyrimidine-5-carboxamide]
0.8 to 1 µM | NC(=O)c1cnc(NC2CCC2)nc1N[C@H]1CC[C@@H](C(=O)N2CCCCC2)CC1 [Example A-133, 2-(cyclobutylamino)-4-((1s,4s)-4-(piperidine-1-carbonyl)cyclohexylamino)pyrimidine-5-carboxamide]
0.2 to 0.8 µM | CCO[C@H]1C[C@H](Nc2ncc(C(N)=O)c(N[C@H]3CCC[C@@H]3O)n2)C1 [Example A-74, 2-((1r,3S)-3-ethoxycyclobutylamino)-4-((1S,2S)-2-hydroxycyclopentylamino)pyrimidine-5-carboxamide]
< 0.2 µM | NC(=O)c1cnc(NC2CCC(F)(F)CC2)nc1N[C@@H]1CCC[C@H]1O [Example A-5, 2-(4,4-difluorocyclohexylamino)-4-((1R,2R)-2-hydroxycyclopentylamino)pyrimidine-5-carboxamide]
< 0.2 µM | CO[C@H]1CCC[C@@H](Nc2ncc(C(N)=O)c(N[C@@H]3CCC[C@H](O)C3)n2)CC1 [Example A-163, 4-((1R,3S)-3-hydroxycyclohexylamino)-2-((1R,4S)-4-methoxycycloheptylamino)pyrimidine-5-carboxamide]
